Reference: EP4796125A1, “TREATMENT OF PATIENT WITH NEGATIVE P53 GENE MUTATION, POSITIVE KRAS GENE MUTATION AND POSITIVE BRCA MUTATION” (Ascentawits Pharmaceuticals, Ltd., priority 2023, dated 2025)

Columns and labels:
[1] = system: NCI-H460 P53KO #1 cells; test: In vitro proliferation under normoxia conditions (CTG, 72 hours), Example 29; type: cell-based, human; details: Table 25
Experimental: • 1) NCI-H460 and NCI-H460 P53KO # 1 cell suspensions were added to 96-well plate (100 µL per well), with a cell density of 2000 cells/well. • 2) The cells were cultured overnight in a 37°C, 5% CO2 incubator. • 3) Compound Treatment
(§1) Monotherapy: 24 hours after cell plating, each well was supplemented with 99.5 µL of growth medium. Then, 0.5 µL of test compounds at different concentrations was added. The plate was gently shaken to ensure even mixing, and then placed in a 37°C, 5% CO2 incubator.
Combination therapy: 24 hours after cell plating, each well was supplemented with 99 µL of growth medium. Then, 0.5 µL of the combination compound was added. The plate was gently shaken to ensure even mixing, and then placed in an incubator for 2 hours. Then, 0.5µL of test compounds at different concentrations was added. The plate was gently shaken to ensure even mixing, and then placed in a 37°C, 5% CO2 incubator. • 4) The cell plate was placed in the incubator for 72 hours. • 5) The cell plate to be tested was placed at room temperature and equilibrated for 30 minutes, and 100 µL of medium was discarded from each well. • 6) 25 µL of CTG reagent was added to each well, placed at a fast shaker to shake for 2 minutes, and placed at room temperature for 30 minutes (protected from light). • 7) The chemiluminescence signal value was read using a multifunctional microplate reader with a reading time of 1000 ms. • 8) IC50 (half maximal inhibitory concentration) values were calculated using GraphPad Prism 5 software.

[2] = system: HPAF-II cells; test: Applicant's previous cancer cell proliferation inhibition test; type: cell-based; details: Homo sapiens, single drug, applicant's previous test data
[3] = system: H460 WT (H460 wild-type cells); test: In vitro proliferation under normoxia (CTG, 72 hours), Example 26; type: cell-based; details: Homo sapiens, NCI-H460, Table 21, AST-3424 alone or + 3 µM AST-3021
Experimental: • 1) H460 cell suspension was added to a 96-well plate (100 µL per well), with a cell density of 2000 cells/well. • 2) The cells were cultured overnight in a 37°C, 5% CO2 incubator. • 3) Compound Treatment
as §1
Combination therapy: 24 hours after cell plating, each well was supplemented with 99 µL of growth medium. Then, 0.5 µL of the combination compound Nutlin-3 was added. The plate was gently shaken to ensure even mixing, and then placed in an incubator for 2 hours. Then, 0.5 µL of test compounds at different concentrations was added. […]

[4] = system: H460 cells; test: Cell cycle G2/M arrest, PI staining and flow cytometry; type: cell-based
Experimental: • 1) H460/HPAF-II cell suspensions were added to a 24-well plate, with a cell density of 100000 cells/well and 995 µL of medium per well. • 2) The cells were cultured overnight in a 37°C, 5% CO2 incubator. • 3) Compound Treatment
24 hours after cell plating, according to the protocol, the experimental groups for each cell line were as follows: Monotherapy: 24 hours after cell plating, 5 µL of test compounds at different concentrations was added: 1% DMSO, 5 µM Nutlin-3, and 0.1 nM AST-3424. The plate was gently shaken to ensure even mixing, and then placed in a 37°C, 5% CO2 incubator.
• Cells were pretreated with AST-3424 for 2 hours, and then co-treatment with Nutlin-3 for 24 hours; • cells were pretreated with Nutlin-3 for 2 hours, and then co-treatment with AS -3424 for 24 hours; and • cells were co-treated with AST-3424 and Nutlin-3 for 24 hours. • 4) The cells were digested, centrifuged at 1000 g at 4°C, washed once with pre-cooled PBS, centrifuged at 1000 g at 4°C, and fixed with 1 mL of pre-cooled 70% ethanol at - 20°C overnight. • 5) The cells were centrifuged at 3000 g at 4°C, washed once with pre-cooled PBS (phosphate buffer), and centrifuged at 3000g at 4°C. PI staining solution was prepared. The cells were stained at 37°Cfor 30 minutes (protected from light), and stored in an ice bath (protected from light). The cells were detected using a flow cytometer on the same day, and the proportions of cells in different cell cycle phases was analyzed using FlowJo.
The remaining operations were similar to those of the above experiment, and the compound treatment was as follows: […]

[5] = system: cell lines and mouse tumor models of BRCA pathogenic mutations; details: in vitro and in vivo pharmacodynamic experiments; data of WO2023174319A; cited from earlier work

SMILES: C[C@H](OP(=O)(N1CC1)N1CC1)c1ccc([N+](=O)[O-])c(Oc2cccc(C(=O)N(C)C)c2)c1 [AST-3424]
- IC50 ([1]; Homo sapiens, NCI-H460 P53KO # 1, normoxia, alone or + 3 µM AST-3021): 5.45 nM
- Ratio, knockout / wild-type ([1]; IC50 in NCI-H460 P53KO # 1 / NCI-H460): 12.67
- IC50 [2]: 107 nM
- IC50 [3]: 0.23 nM
- cell cycle (G0/G1, S, G2/M phases) ([4]; 0.1 nM AST-3424, 5 µM Nutlin-3, 24 hours, combination: AST-3424 added first (Figure 9)): does not significantly alter the cell cycle
- G2/M cell cycle arrest ([4]; 0.03-1 nM AST-3424 ± 5 µM Nutlin-3 (AST-3424 pre-treatment 2 hours), second experiment (Figure 10)): induces concentration-dependent G2/M cell cycle arrest
- sensitivity of cell lines and mouse tumor models of BRCA pathogenic mutations [5]: more sensitive
